Assay results: article PMC6748385 (Toxicology and applied pharmacology, 2019)
Read-outs that look alike come from different tables or passages of the source.

Legend:
Test in all cases: ERE-luciferase transactivation, HELN-zfER cells
Type in all cases: cell-based
zfERβ2 (Esr2a) = zfERβ2 (Esr2a) (Danio rerio, UniProt Q7ZU32)
zfERβ1 (Esr2b) = target: T1, zfERβ1 (Esr2b) (Danio rerio, UniProt Q5PR29)
T1 sequence (Q5PR29 1-592): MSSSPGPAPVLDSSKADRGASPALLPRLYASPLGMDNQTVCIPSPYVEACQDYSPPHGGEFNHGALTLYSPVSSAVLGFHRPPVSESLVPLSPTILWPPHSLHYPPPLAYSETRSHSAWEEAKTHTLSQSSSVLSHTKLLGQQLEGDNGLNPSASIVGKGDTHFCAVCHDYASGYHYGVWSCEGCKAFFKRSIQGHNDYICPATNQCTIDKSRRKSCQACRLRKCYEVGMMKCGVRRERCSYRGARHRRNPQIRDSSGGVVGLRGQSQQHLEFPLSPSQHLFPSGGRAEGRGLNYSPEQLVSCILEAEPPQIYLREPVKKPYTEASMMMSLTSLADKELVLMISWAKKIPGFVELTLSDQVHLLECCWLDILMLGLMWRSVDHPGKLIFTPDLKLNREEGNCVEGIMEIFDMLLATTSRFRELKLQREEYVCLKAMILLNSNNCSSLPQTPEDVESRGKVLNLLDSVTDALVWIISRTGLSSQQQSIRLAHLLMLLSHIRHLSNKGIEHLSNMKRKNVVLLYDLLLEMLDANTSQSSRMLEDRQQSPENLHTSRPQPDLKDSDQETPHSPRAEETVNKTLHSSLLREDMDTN

zfERα (Esr1) = target: T2, zfERα (Esr1) (Danio rerio, UniProt P57717)
T2 sequence (P57717 1-569): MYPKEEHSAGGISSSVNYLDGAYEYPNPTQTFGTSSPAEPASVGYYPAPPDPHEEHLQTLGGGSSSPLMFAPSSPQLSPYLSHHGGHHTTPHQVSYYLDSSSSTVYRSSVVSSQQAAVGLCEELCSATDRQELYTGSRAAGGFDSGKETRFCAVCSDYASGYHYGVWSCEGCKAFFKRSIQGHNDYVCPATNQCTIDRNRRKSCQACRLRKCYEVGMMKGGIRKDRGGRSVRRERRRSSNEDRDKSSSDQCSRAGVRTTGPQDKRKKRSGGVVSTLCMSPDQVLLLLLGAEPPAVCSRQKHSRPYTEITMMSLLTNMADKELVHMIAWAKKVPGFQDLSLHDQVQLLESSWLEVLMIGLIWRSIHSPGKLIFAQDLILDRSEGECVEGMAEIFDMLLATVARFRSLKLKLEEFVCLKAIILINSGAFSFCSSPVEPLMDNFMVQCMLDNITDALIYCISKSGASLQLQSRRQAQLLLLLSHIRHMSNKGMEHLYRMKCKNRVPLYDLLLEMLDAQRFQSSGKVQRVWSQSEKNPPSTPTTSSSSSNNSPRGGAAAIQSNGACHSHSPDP

Chain of zfERβ2 (Esr2a) (Q7ZU32 1-553): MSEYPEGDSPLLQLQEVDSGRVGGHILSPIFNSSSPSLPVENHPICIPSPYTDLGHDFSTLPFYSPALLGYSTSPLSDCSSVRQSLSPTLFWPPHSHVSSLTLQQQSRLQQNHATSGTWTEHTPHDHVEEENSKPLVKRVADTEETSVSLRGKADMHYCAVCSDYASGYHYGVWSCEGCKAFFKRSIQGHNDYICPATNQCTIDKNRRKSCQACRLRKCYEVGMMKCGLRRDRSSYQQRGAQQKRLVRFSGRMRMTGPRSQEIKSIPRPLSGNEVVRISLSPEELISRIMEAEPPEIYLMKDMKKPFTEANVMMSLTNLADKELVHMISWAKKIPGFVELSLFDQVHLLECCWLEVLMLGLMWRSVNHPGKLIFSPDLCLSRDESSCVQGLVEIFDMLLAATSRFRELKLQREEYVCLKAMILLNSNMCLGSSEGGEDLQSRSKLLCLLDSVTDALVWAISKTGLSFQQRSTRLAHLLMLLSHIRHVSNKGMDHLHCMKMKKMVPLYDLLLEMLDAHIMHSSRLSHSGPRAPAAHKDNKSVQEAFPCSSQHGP

Row | Compound | EC50 (zfERβ2 (Esr2a); read-out: zfERβ2, agonist mode, 16 h, 28°C) [µM] | EC50 (zfERβ1 (Esr2b); read-out: zfERβ1, agonist mode, 16 h, 28°C) [µM] | EC50 (zfERα (Esr1); read-out: zfERα, agonist mode, 16 h, 28°C) [µM] | EC50 (zfERβ2 (Esr2a)) [µM] | EC50 (zfERβ1 (Esr2b)) [µM] | EC50 (zfERα (Esr1)) [µM]
1 | Oc1ccc(C(c2ccc(O)cc2)(C(F)(F)F)C(F)(F)F)cc1 [BPAF] | 0.897 ± 0.268 | 0.758 ± 0.131 | 0.084 ± 0.027 | – | – | –
2 | C[C@]12CC[C@@H]3c4ccc(O)cc4CC[C@H]3[C@@H]1C[C@H]1OC(=O)C[C@]12O [16α-LE2, 3,17-Dihydroxy-19-nor-17α-pregna-1,3,5(10)-triene-21,16α-lactone] | – | – | – | 0.0695 ± 0.0175 | 0.271 ± 0.045 | 0.00065 ± 0.0001
3 | CC(C)(c1ccc(O)cc1)c1ccc(O)cc1 [BPA] | – | – | – | 2.8 ± 0.562 | 3.33 ± 0.381 | 0.469 ± 0.042
